Measurements published in patent EP2874610B1, “MULTILAYERED PHARMACEUTICAL FORMULATION” (Recordati Industria Chimica E Farmaceutica SPA, priority 2012, dated 2014).

Experiments:
[1] = Dissolution test by immersion into simulated gastric fluid (USP apparatus II), then pH raised to 7.2; format: physicochemical
Protocol: The dissolution profile of the trilayered tablets prepared as described in examples 1, 2 and 3 was determined by immersion into simulated gastric fluid (USP apparatus II for dissolution test).
After immersion, the tablets (n = 6) placed themselves on the bottom of the vessel and the development of CO2 bubbles which remained entrapped into the hydroxypropylmethylcellulose gel formed in contact with the aqueous medium was observed from layer A. At the same time, layer B rapidly disintegrated in correspondence with the side surface of the layer exposed to the simulated gastric fluid.
The dissolution profile of the trilayered tablets prepared as described in examples 6, and 7 was determined by immersion into simulated gastric fluid (USP apparatus II for dissolution test).

[2] = Dissolution rate under simulated fasting and fed conditions (SGF pH 1.2, FaSSGF pH 1.6, FeSSGFm pH 5.0); format: physicochemical; conditions: tablets of example 2
Protocol: The dissolution rate of trilayered tablets prepared as described in example 2, was evaluated also under simulated fasting and fed conditions. The evaluation was carried out under the following conditions: simulated gastric fluid at pH1.2 (SGF), simulated gastric fluid at pH 1.6 (FaSSGF) for fasting conditions and simulated gastric fluid at pH 5.0 (FeSSGFm) for fed conditions.

[3] = In vivo study: plasma levels after single dose of three layer tablet in fasting and fed conditions, randomized cross-over, HPLC/MS/MS; conditions: for AUC(0-inf): AUCinf; for time plasma levels were maintained at plateau: three layer tablet of example 4, Figure 6
Protocol: A three layer tablet of gabapentin 375 mg and flurbiprofen 37.5 mg, prepared as described in example 4, was administered to 24 healthy male and female subjects, 18-55 years old, in fasting conditions and after a high fat meal in single dose according to a randomized cross-over design. The treatment periods were separated by a wash out interval of at least 5 days.
Each dose was taken with 240 mL of water in fasting conditions from at least 10 hours or 30 minutes after a standardized meal, which was high-caloric (approximately 1000 Kcal) and high-fat (approximately 50 percent of total caloric content of the meal).
Gabapentin and flurbiprofen plasma levels were determined by a validated HPLC/MS/MS analytical method at the following times: pre-dose, 0.5, 1, 1.5, 2, 3, 4, 5, 6, 7, 8, 10, 12, 16, 24 and 32 h post-dose.

[4] = both, human, in vivo, Fed conditions (high fat meal), three layer tablet of example 4, single dose, arithmetic mean ± s.d., n=24
[5] = three layer tablet of example 4, single dose

Compound: NCC1(CC(=O)O)CCCCC1 [gabapentin]
- release time of gabapentin contained in layer B ([1]; tablets of example 1): ≤ 5 min
- release time of remaining dose of gabapentin contained in layer A ([1]; tablets of example 1, slow prolonged release): about 8 hours
- release time of gabapentin contained in layer B ([1]; tablets of example 2): ≤ 15 min
- release time of remaining dose of gabapentin contained in layer A ([1]; tablets of example 2, slow prolonged release): about 9 hours
- release time of gabapentin contained in layer B ([1]; tablets of example 3): ≤ 15 min
- release time of remaining dose of gabapentin contained in layer A ([1]; tablets of example 3, slow prolonged release): about 9 hours
- release time of gabapentin contained in layer B ([1]; tablets of example 6): ≤ 15 min
- release of remaining dose of gabapentin contained in layer A ([1]; tablets of example 6, in about 9 hours, slow prolonged release): 90%
- release time of gabapentin contained in layer B ([1]; tablets of example 7): ≤ 15 min
- release time of remaining dose of gabapentin contained in layer A ([1]; tablets of example 7, slow prolonged release): about 9 hours
- f2 factor, similarity index between SGF and FaSSGF release profiles ([2]; pH 1.2 vs pH 1.6): 83
- f2 factor, similarity index between SGF and FeSSGFm release profiles ([2]; pH 1.2 vs pH 5.0): 65.8
- f2 factor, similarity index between FaSSFG and FeSSGFm release profiles ([2]; pH 1.6 vs pH 5.0): 55.7
- comparison of dissolution profiles in SGF, FaSSGF and FeSSGFm ([2]; result in words): did not show significant differences
- AUC(0-inf) ([3]; both, human, in vivo, Fasting conditions, three layer tablet of example 4, single dose, arithmetic mean ± s.d., n=24): 24100 ± 8150 ng·h/mL
- AUC(0-inf) [3, 4]: 39200 ± 9070 ng·h/mL
- Cmax ([3]; both, human, in vivo, Fasting conditions, three layer tablet of example 4 (gabapentin 375 mg, flurbiprofen 37.5 mg), single dose, arithmetic mean ± s.d., n=24): 2340 ± 748 ng/mL
- Cmax [3, 4]: 3080 ± 727 ng/mL
- Tmax ([3]; both, human, in vivo, Fasting conditions, three layer tablet of example 4, single dose, median (min - max), n=24): 4 h
- Tmax ([3]; both, human, in vivo, Fed conditions (high fat meal), three layer tablet of example 4, single dose, median (min - max), n=24): 5 h
- time plasma levels were maintained at plateau ([3]; fasting conditions): about 4 hours
- time plasma levels were maintained at plateau ([3]; fed conditions): 8 h
- Ratio of geometric means, AUCinf, Test / Reference (Fed / fasting) [3, 5]: 167%
- Ratio of geometric means, Cmax, Test / Reference (Fed / fasting) [3, 5]: 136%

Compound: CC(C(=O)O)c1ccc(-c2ccccc2)c(F)c1 (stereo not shown) [flurbiprofen]
- release of flurbiprofen contained in layer C in simulated gastric fluid ([1]; tablets of example 1, before raising the pH): not released in the first hour
- release of flurbiprofen contained in layer C after having raised the pH to 7.2 ([1]; tablets of example 1, in 5 hours, linear release): 100%
- release of flurbiprofen contained in layer C after having raised the pH to 7.2 ([1]; tablets of example 2, in 6 hours, linear release): 90%
- release of flurbiprofen contained in layer C in simulated gastric fluid ([1]; tablets of example 2, pH 1.2): not released at pH 1.2
- release of flurbiprofen contained in layer C after having raised the pH to 7.2 ([1]; tablets of example 3, in 6 hours, linear release): 90%
- release of flurbiprofen contained in layer C in simulated gastric fluid ([1]; tablets of example 3, pH 1.2): not released at pH 1.2
- release of flurbiprofen contained in layer C in simulated gastric fluid ([1]; tablets of example 6, before raising the pH): not released in the first hour
- release of flurbiprofen contained in layer C after having raised the pH to 7.2 ([1]; tablets of example 6, in 5 hours): 100%
- release of flurbiprofen contained in layer C after having raised the pH to 7.2 ([1]; tablets of example 7, in 7 hours, linear release): 90%
- release of flurbiprofen contained in layer C in simulated gastric fluid ([1]; tablets of example 7, pH 1.2): not released at pH 1.2
- Ratio of geometric means, AUCinf, Test / Reference (Fed / fasting) ([3]; both, human, in vivo): 98%
- Ratio of geometric means, Cmax, Test / Reference (Fed / fasting) ([3]; both, human, in vivo): 157%
- time after intake up to which release was very low ([3]; both, human, in vivo): up to 2 hours
- time post dose at which plasma levels reached a plateau ([3]; both, human, in vivo): around 4 hour
- AUC(0-inf) ([3]; both, human, in vivo): 35700 ± 13200 ng·h/mL
- Tmax ([3]; both, human, in vivo): 12 h
